According to PubChem BioAssay AID651551 (Sanford-Burnham Center for Chemical Genomics, 2012):
Activity calls are given as the source filed them.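 How the source made its calls: active means compounds blocking the Peg3 reporter with IC50 up to 10 µM at 6 or 24 hours, yet inert on a control reporter; inactive means the rest.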

Tests used:
[1] = GAPDH versus PEG-3 reporter suppression – cell-based, luminescence, counter-screen for PEG-3 promoter inhibitor project, SAR follow-up (AID 651551); settings: HeLa PEG-Prom / GAPDH luciferase reporter, 6 or 24 h, GAPDH, mean of runs
PEG-3 = PEG-3 (UniProt Q6IN02); assay: as above; settings: HeLa PEG-Prom / GAPDH luciferase reporter, 6 or 24 h, mean of runs

Compound	IC50 ([1]; 6 h)	IC50 ([1]; 24 h)	IC50 (PEG-3; 6 h)	IC50 (PEG-3; 24 h)
CCCn1nc(C(=O)Nc2nc(-c3ccncc3)cs2)c2ccccc2c1=O	inactive	5.32 µM	inactive	inactive
COc1ccccc1Nc1nc(-c2sc(NC(=O)c3ccco3)nc2C)cs1	inactive	4.17 µM	> 99 µM (inactive)	> 99 µM (inactive)
O=C(Nc1nc2ccccc2s1)c1nn(-c2ccccc2)c(=O)c2ccccc12	> 99 µM (inactive)	inactive	> 99 µM (inactive)	> 99 µM (inactive)
COc1ccc(-n2nc(C(=O)NCC(=O)Nc3cccc(OC)c3)c3ccccc3c2=O)cc1	> 99 µM (inactive)	inactive	> 99 µM (inactive)	> 99 µM (inactive)
CCCn1nc(C(=O)Nc2nc3ccccc3s2)c2ccccc2c1=O	> 99 µM (inactive)	inactive	> 99 µM (inactive)	> 99 µM (inactive)
Cc1nc(NC(=O)c2ccccc2)sc1-c1csc(Nc2ccccc2Cl)n1	> 99 µM (inactive)	7.52 µM	> 99 µM (inactive)	> 99 µM (inactive)
COc1ccc(-n2nc(C(=O)NCC(=O)Nc3cc(OC)c(OC)c(OC)c3)c3ccccc3c2=O)cc1OC	> 99 µM (inactive)	6.31 µM	> 99 µM (inactive)	> 99 µM (inactive)
Cc1nc(NC(=O)c2ccccc2)sc1-c1csc(Nc2cccc(Cl)c2C)n1	> 99 µM (inactive)	inactive	> 99 µM (inactive)	> 99 µM (inactive)
Cc1ccc(Cl)cc1Nc1nc(-c2sc(NC(=O)c3ccco3)nc2C)cs1	inactive	7.63 µM	inactive	inactive
CCCn1nc(C(=O)Nc2nc(-c3ccccn3)cs2)c2ccccc2c1=O	inactive	7.06 µM	8.66 µM	inactive
Cc1cc(NC(=O)c2ccccc2C(F)(F)F)n(-c2nc3ccccc3[nH]2)n1	inactive	8.73 µM	inactive	inactive
COc1ccc(-n2nc(C(=O)NCC(=O)Nc3ccc(OC)c(OC)c3)c3ccccc3c2=O)cc1	inactive	inactive	> 99 µM (inactive)	> 99 µM (inactive)
COc1ccc(Cl)cc1Nc1nc(-c2sc(NC(=O)c3ccccc3)nc2C)cs1	> 99 µM (inactive)	9.9 µM	inactive	inactive
Cc1cc(NC(=O)c2ccccc2)n(-c2nc3ccccc3[nH]2)n1	> 99 µM (inactive)	> 99 µM (inactive)	inactive	inactive
Cc1cc(NC(=O)c2ccccc2C)n(-c2nc3ccccc3[nH]2)n1	> 99 µM (inactive)	inactive	inactive	inactive
COCCCNC(=O)c1ccc(Cn2c(=O)c3ccccc3n(Cc3ccccc3C#N)c2=O)cc1	> 99 µM (inactive)	4.68 µM	> 99 µM (inactive)	6.52 µM
Cc1cc(NC(=O)c2cccc(C)c2C)n(-c2nc3ccccc3[nH]2)n1	> 99 µM (inactive)	inactive	inactive	> 99 µM (inactive)
Cc1nc(NC(=O)c2ccccc2)sc1-c1csc(Nc2ccccc2)n1	inactive	inactive	> 99 µM (inactive)	inactive
CCn1nc(C(=O)Nc2nc(-c3ccccn3)cs2)c2ccccc2c1=O	inactive	3.96 µM	inactive	6.13 µM
O=C(Nc1nc(-c2ccccc2)cs1)c1nn(-c2ccccc2)c(=O)c2ccccc12	> 99 µM (inactive)	> 99 µM (inactive)	> 99 µM (inactive)	> 99 µM (inactive)
Cc1cc(NC(=O)c2ccccc2)n(-c2nc3ccccc3n2C)n1	> 99 µM (inactive)	> 99 µM (inactive)	inactive	> 99 µM (inactive)
O=C(Nc1nccs1)c1nn(-c2ccccc2)c(=O)c2ccccc12	inactive	8.39 µM	> 99 µM (inactive)	> 99 µM (inactive)
CCn1cc(C(=O)NCc2ccco2)c(=O)c2cc(S(=O)(=O)N3CCCC3)ccc21	> 99 µM (inactive)	inactive	> 99 µM (inactive)	> 99 µM (inactive)
